Test results taken from patent US20020137929A1, “1 - (3-heterocyclylphenyl) isothiourea, -isourea, -guanidine and -amidine herbicidal agents” (Intellectual Property Department, BASF Aktiengesellschaft, priority 1998, published 2002).

What was measured:
[1] = system: TRZAWR (Wheat, Winter, cv Riband); test: Preemergence herbicidal evaluation; type: in vivo, Triticum aestivum; conditions: rated 4-5 weeks after treatment
In short: (§1)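 Preemergence soil application of compound, sprayed in aqueous acetone at rates equivalent to about 0.0156 to 0.500 kg per hectare onto freshly sown cups. Plant response was judged by eye on a 0-9 scale four to five weeks later.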

[2] = system: GLXMAW (Soybean, Williams); test: Preemergence herbicidal evaluation; type: in vivo, Glycine max, (L.) Merr. cv Williams; conditions: rated 4-5 weeks after treatment
In short: as §1

[3] = system: CYPIR (Rice Flatsedge); test: Postemergence weed control under flooded paddy conditions; type: in vivo, Cyperus iria; conditions: postemergence weeds, 3-4 weeks after treatment
In short: (§2)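 With weeds 3 to 5 cm tall and rice at the 1.5 to 2.5 leaf stage, containers were flooded and water held 1.5 to 3 cm above soil. Compounds in 50/50 v/v aqueous/acetone went into the flood water at about 0.0313 to 0.500 kg/ha a.i. Effects were visually rated 0–9 against controls after three to four weeks in the greenhouse.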

[4] = system: CHEAL (Lambsquarters, Common); test: Postemergence herbicidal evaluation; type: in vivo, Chenopodium album; conditions: postemergence
In short: (§3)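 Herbicidal effect was judged by eye on a 0–9 scale covering stand, vigor, deformity, size and chlorosis, compared with controls, four to five weeks after seedlings about two weeks old were sprayed (40 psi, ~0.0156–0.500 kg/ha).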

[5] = system: ECHCG (Barnyardgrass); test: Preemergence herbicidal evaluation; type: in vivo, Echinochloa crus-galli; conditions: rated 4-5 weeks after treatment
In short: as §1

[6] = system: ORYSAT (Rice, Tebonnet); test: Postemergence herbicidal evaluation; type: in vivo, Oryza sativa, (L.) Tebonnet; conditions: postemergence
In short: as §3

[7] = system: SETVI (Foxtail, Green); test: Postemergence herbicidal evaluation; type: in vivo, Setaria viridis; conditions: postemergence
In short: as §3

[8] = system: ABUTH (Velvetleaf); test: Preemergence herbicidal evaluation; type: in vivo, Abutilon theophrasti; conditions: rated 4-5 weeks after treatment
In short: as §1

[9] = system: ABUTH (Velvetleaf); test: Postemergence herbicidal evaluation; type: in vivo, Abutilon theophrasti; conditions: postemergence
In short: as §3

[10] = system: CHEAL (Lambsquarters, Common); test: Preemergence herbicidal evaluation; type: in vivo, Chenopodium album; conditions: rated 4-5 weeks after treatment
In short: as §1

[11] = system: CASOB (Sicklepod); test: Preemergence herbicidal evaluation; type: in vivo, Cassia obtusifolia; conditions: rated 4-5 weeks after treatment
In short: as §1

[12] = system: ZEAMX (Corn, Field); test: Preemergence herbicidal evaluation; type: in vivo, Zea mays; conditions: rated 4-5 weeks after treatment
In short: as §1

[13] = system: CYPSE (Flatsedge); test: Postemergence weed control under flooded paddy conditions; type: in vivo, Cyperus serotinus; conditions: postemergence weeds, 3-4 weeks after treatment
In short: as §2

[14] = system: ECHCG (Barnyardgrass); test: Postemergence herbicidal evaluation; type: in vivo, Echinochloa crus-galli; conditions: postemergence
In short: as §3

[15] = system: ZEAMX (Corn, Field); test: Postemergence herbicidal evaluation; type: in vivo, Zea mays; conditions: postemergence
In short: as §3

CN1C(=O)CSC1=Nc1cc(N2C(=O)C3=C(CCCC3)C2=O)c(F)cc1Cl [Compound 1, N-{4-chloro-2-fluoro-5-[(3-methyl-4-oxo-2-thiazolidinylidene)amino]phenyl}-1-cyclohexene-1,2-dicarboximide]
1.5: ORYSAT herbicidal rating ([6]; rate 0.0313 kg/ha)
3.0: TRZAWR preemergence herbicidal rating ([1]; rate 0.1250 kg/ha) | GLXMAW preemergence herbicidal rating ([2]; rate 0.5000 kg/ha) | ORYSAT herbicidal rating ([6]; rate 0.0625 kg/ha) | SETVI herbicidal rating ([7]; rate 0.0313 kg/ha) | CASOB preemergence herbicidal rating ([11]; rate 0.0625 kg/ha)
2.5: ZEAMX herbicidal rating ([15]; rate 0.0157 kg/ha)
5.5: Herbicidal rating CYPIR ([3]; rate 0.1250 kg/ha) | ORYSAT herbicidal rating ([6]; rate 0.2500 kg/ha) | ORYSAT herbicidal rating ([6]; rate 0.5000 kg/ha) | ZEAMX herbicidal rating ([15]; rate 0.2500 kg/ha)
2.0: TRZAWR preemergence herbicidal rating ([1]; rate 0.0313 kg/ha) | GLXMAW preemergence herbicidal rating ([2]; rate 0.0625 kg/ha) | GLXMAW preemergence herbicidal rating ([2]; rate 0.1250 kg/ha) | ECHCG preemergence herbicidal rating ([5]; rate 0.0313 kg/ha) | CASOB preemergence herbicidal rating ([11]; rate 0.1250 kg/ha) | ZEAMX preemergence herbicidal rating ([12]; rate 0.5000 kg/ha) | ECHCG herbicidal rating ([14]; rate 0.0625 kg/ha) | ECHCG herbicidal rating ([14]; rate 0.1250 kg/ha)
8.0: ABUTH herbicidal rating ([9]; rate 0.0313 kg/ha) | ABUTH herbicidal rating ([9]; rate 0.0625 kg/ha)
3.5: Herbicidal rating CYPIR ([3]; rate 0.0625 kg/ha) | ORYSAT herbicidal rating ([6]; rate 0.1250 kg/ha) | ZEAMX herbicidal rating ([15]; rate 0.0313 kg/ha)
6.5: Herbicidal rating CYPIR ([3]; rate 0.2500 kg/ha) | ZEAMX herbicidal rating ([15]; rate 0.5000 kg/ha)
7.0: CHEAL herbicidal rating ([4]; rate 0.0313 kg/ha) | CHEAL herbicidal rating ([4]; rate 0.0625 kg/ha) | SETVI herbicidal rating ([7]; rate 0.1250 kg/ha) | SETVI herbicidal rating ([7]; rate 0.2500 kg/ha) | ECHCG herbicidal rating ([14]; rate 0.5000 kg/ha)
0.0: GLXMAW preemergence herbicidal rating ([2]; rate 0.0313 kg/ha) | CASOB preemergence herbicidal rating ([11]; rate 0.0313 kg/ha) | ZEAMX preemergence herbicidal rating ([12]; rate 0.0313 kg/ha) | ZEAMX preemergence herbicidal rating ([12]; rate 0.0625 kg/ha) | ZEAMX preemergence herbicidal rating ([12]; rate 0.1250 kg/ha) | ZEAMX preemergence herbicidal rating ([12]; rate 0.2500 kg/ha) | Herbicidal rating CYPSE ([13]; rate 0.0313 kg/ha) | Herbicidal rating CYPSE ([13]; rate 0.0625 kg/ha) | Herbicidal rating CYPSE ([13]; rate 0.1250 kg/ha) | ECHCG herbicidal rating ([14]; rate 0.0157 kg/ha) | ECHCG herbicidal rating ([14]; rate 0.0313 kg/ha)
6.0: TRZAWR preemergence herbicidal rating ([1]; rate 0.2500 kg/ha) | TRZAWR preemergence herbicidal rating ([1]; rate 0.5000 kg/ha) | CHEAL herbicidal rating ([4]; rate 0.0157 kg/ha) | ECHCG preemergence herbicidal rating ([5]; rate 0.1250 kg/ha) | CASOB preemergence herbicidal rating ([11]; rate 0.2500 kg/ha)
8.5: Herbicidal rating CYPIR ([3]; rate 0.5000 kg/ha)
9.0: CHEAL herbicidal rating ([4]; rate 0.1250 kg/ha) | CHEAL herbicidal rating ([4]; rate 0.2500 kg/ha) | CHEAL herbicidal rating ([4]; rate 0.5000 kg/ha) | SETVI herbicidal rating ([7]; rate 0.5000 kg/ha) | ABUTH preemergence herbicidal rating ([8]; rate 0.0625 kg/ha) | ABUTH preemergence herbicidal rating ([8]; rate 0.1250 kg/ha) | ABUTH preemergence herbicidal rating ([8]; rate 0.2500 kg/ha) | ABUTH preemergence herbicidal rating ([8]; rate 0.5000 kg/ha) | ABUTH herbicidal rating ([9]; rate 0.1250 kg/ha) | ABUTH herbicidal rating ([9]; rate 0.2500 kg/ha) | ABUTH herbicidal rating ([9]; rate 0.5000 kg/ha) | CHEAL preemergence herbicidal rating ([10]; rate 0.0313 kg/ha) | CHEAL preemergence herbicidal rating ([10]; rate 0.0625 kg/ha) | CHEAL preemergence herbicidal rating ([10]; rate 0.1250 kg/ha) | CHEAL preemergence herbicidal rating ([10]; rate 0.2500 kg/ha) | CHEAL preemergence herbicidal rating ([10]; rate 0.5000 kg/ha)
7.7: ECHCG preemergence herbicidal rating ([5]; rate 0.5000 kg/ha)
1.0: Herbicidal rating CYPIR ([3]; rate 0.0313 kg/ha) | ORYSAT herbicidal rating ([6]; rate 0.0157 kg/ha) | SETVI herbicidal rating ([7]; rate 0.0157 kg/ha) | Herbicidal rating CYPSE ([13]; rate 0.2500 kg/ha)
4.0: TRZAWR preemergence herbicidal rating ([1]; rate 0.0625 kg/ha) | GLXMAW preemergence herbicidal rating ([2]; rate 0.2500 kg/ha) | SETVI herbicidal rating ([7]; rate 0.0625 kg/ha) | Herbicidal rating CYPSE ([13]; rate 0.5000 kg/ha) | ZEAMX herbicidal rating ([15]; rate 0.0625 kg/ha)
6.7: CASOB preemergence herbicidal rating ([11]; rate 0.5000 kg/ha)
5.0: ECHCG preemergence herbicidal rating ([5]; rate 0.0625 kg/ha) | ECHCG preemergence herbicidal rating ([5]; rate 0.2500 kg/ha) | ABUTH preemergence herbicidal rating ([8]; rate 0.0313 kg/ha) | ABUTH herbicidal rating ([9]; rate 0.0157 kg/ha) | ECHCG herbicidal rating ([14]; rate 0.2500 kg/ha) | ZEAMX herbicidal rating ([15]; rate 0.1250 kg/ha)
